According to patent publication US20100069246A1, “Herbicide Combination Comprising Dimethoxytriazinyl-Substituted Difluoromethanesulfonylanilides” (BAYER CROPSCIENCE AG, priority 2008, published 2010):

What was measured:
Experiment in all cases: Post-emergence action, greenhouse pot test, visual scoring
Format in all cases: in vivo
[1] = tested on: Abuthilon theophrasti (ABUTH)
Description: (§1) Seeds or rhizome pieces of mono- and dicotyledonous harmful and useful plants were placed in peat pots (diameter 4 cm) filled with sandy loam and then covered with soil. The pots were kept in a greenhouse under optimum conditions. In addition, harmful plants encountered in paddy rice cultivation were cultivated in pots with a water level 2 cm above the soil surface.
(§2) About three weeks after the start of the cultivation, the test plants were treated at the 2- to 3-leaf stage. The herbicides, formulated as powder or liquid concentrates, were, either alone or in the combinations according to the invention, sprayed in various dosages on to the green parts of the plants using an application rate of 600 l of water/ha (converted). For further cultivation of the plants, the pots were then again kept under optimum conditions in a greenhouse.
(§3) The visual scoring of the herbicidal effects was carried out in intervals up to 21 days after the treatment. Scoring was carried out in percent in comparison to the untreated control plants. 0%=no herbicidal activity, 100%=complete herbicidal activity=complete kill.
(§4) The percentages from the treatments with the herbicides alone (=individual application) and with the combinations according to the invention (=mixtures) were employed to calculate interactions using the method of Colby. When the observed efficacies of the mixtures exceed the formal sum of the values of the tests with individual applications, they also exceed the expected value according to Colby, which is calculated using the formula below (cf. S. R. Colby; in Weeds 15 (1967) pp. 20 to 22):
(§5) Here: • A, B=activity of components A and B in percent at a dosage of a and b g of ai/ha (=gramm of active substance per hectare), respectively. • E=expected value in % at a dosage of a+b g of ai/ha.

[2] = tested on: Triticum aestivum (TRZAS); conditions: 10 DAT
Description: as §1, §2, §3, §4, §5

[3] = tested on: Pharbitis purpurea (PHBPU)
Description: as §1, §2, §3, §4, §5

Setaria viridis (SETVI) = tested on: Setaria viridis (SETVI)
Description: as §1, §2, §3, §4, §5

Oryza sativa (ORYSA) = tested on: Oryza sativa (ORYSA)
Description: as §1, §2, §3, §4, §5

[4] = tested on: Fallopia (ex Polygonum) convolvulus (POLCO)
Description: as §1, §2, §3, §4, §5

[5] = tested on: Alopecurus myosuroides (ALOMY)
Description: as §1, §2, §3, §4, §5

[6] = tested on: Matricaria inodora (MATIN)
Description: as §1, §2, §3, §4, §5

Zea mays (ZEAMX) = tested on: Zea mays (ZEAMX)
Description: as §1, §2, §3, §4, §5

[7] = tested on: Amaranthus retroflexus (AMARE)
Description: as §1, §2, §3, §4, §5

[8] = tested on: Echinochloa crus-galli (ECHCG); conditions: 21 DAT
Description: as §1, §2, §3, §4, §5

Veronica persica (VERPE) = tested on: Veronica persica (VERPE)
Description: as §1, §2, §3, §4, §5

Avena fatua (AVEFA) = tested on: Avena fatua (AVEFA)
Description: as §1, §2, §3, §4, §5

Viola tricolor (VIOTR) = tested on: Viola tricolor (VIOTR)
Description: as §1, §2, §3, §4, §5

[9] = tested on: Lolium multiflorum (LOLMU)
Description: as §1, §2, §3, §4, §5

[10] = tested on: Cyperus esculentus (CYPES); conditions: 21 DAT
Description: as §1, §2, §3, §4, §5

[11] = 21 DAT, component A 4 g of ai/ha
[12] = 21 DAT, component A 12 g of ai/ha
[13] = 10 DAT, component A 4 g of ai/ha
[14] = 10 DAT, component B 300 g of ai/ha
[15] = 10 DAT, component B 900 g of ai/ha
[16] = 21 DAT, component B 300 g of ai/ha
[17] = 21 DAT, component B 900 g of ai/ha
[18] = 21 DAT, component B 400 g of ai/ha
[19] = 21 DAT, component B 1200 g of ai/ha
[20] = 10 DAT, component B 400 g of ai/ha
[21] = 10 DAT, component B 1200 g of ai/ha

Measured: % activity found

COc1nc(OC)nc(C(=O)c2cccc(F)c2N(C)S(=O)(=O)C(F)F)n1 [A-1]
0%: [2]; component A 4 g of ai/ha | Zea mays (ZEAMX); [13] | Zea mays (ZEAMX); [12]
70%: [4]; [12] | [7]; [11]
10%: Oryza sativa (ORYSA); [12]
60%: [3]; 10 DAT, component A 12 g of ai/ha | [3]; [11] | [6]; [12]
85%: [1]; [11] | [1]; [12] | [8]; component A 4 g of ai/ha
40%: [5]; [13] | [5]; [11]
50%: Setaria viridis (SETVI); [13]

CC(C)(NC(=O)NCc1ccccc1Cl)c1ccccc1 [B1-1, N-[(2-chlorophenyl)methyl]-N′-(1-methyl-1-phenylethyl)urea]
10%: Viola tricolor (VIOTR); [17]
5%: [2]; component B 900 g of ai/ha | Zea mays (ZEAMX); [16]
30%: [3]; [17]
20%: [6]; [14] | [7]; [17]
0%: Veronica persica (VERPE); [14] | Veronica persica (VERPE); [15] | Veronica persica (VERPE); [16] | Veronica persica (VERPE); [17] | [1]; [14] | [1]; [16] | [1]; [17] | [3]; [14] | [3]; [15] | [3]; [16] | Setaria viridis (SETVI); [14] | Setaria viridis (SETVI); [15] | Setaria viridis (SETVI); [16] | Setaria viridis (SETVI); [17] | Avena fatua (AVEFA); [14] | Avena fatua (AVEFA); [15] | Oryza sativa (ORYSA); [14] | [9]; [17] | [4]; [16] | [4]; [17] | [5]; [14] | [5]; [15] | [5]; [16] | [5]; [17] | [6]; [16] | [6]; [17] | Zea mays (ZEAMX); [14] | Zea mays (ZEAMX); [15] | Zea mays (ZEAMX); [17] | [7]; [16] | [8]; component B 300 g of ai/ha

Cc1ccc(NC(=O)NC(C)(C)c2ccccc2)cc1 [B2-4, N-(4-methylphenyl)-N′-(1-methyl-1-phenylethyl)urea]
20%: [6]; [19]
10%: Oryza sativa (ORYSA); [19] | Zea mays (ZEAMX); [21]
40%: Setaria viridis (SETVI); [19]
0%: Veronica persica (VERPE); [18] | Veronica persica (VERPE); [19] | [1]; [20] | [1]; [21] | [1]; [18] | [1]; [19] | [2]; component B 400 g of ai/ha | [2]; component B 1200 g of ai/ha | [3]; [20] | [3]; [21] | [3]; [18] | [3]; [19] | Avena fatua (AVEFA); [18] | Avena fatua (AVEFA); [19] | [10]; component B 400 g of ai/ha | [10]; component B 1200 g of ai/ha | Viola tricolor (VIOTR); [20] | Viola tricolor (VIOTR); [21] | Viola tricolor (VIOTR); [18] | Viola tricolor (VIOTR); [19] | [9]; [20] | [9]; [21] | [9]; [18] | [9]; [19] | [4]; [20] | [4]; [21] | [4]; [18] | [4]; [19] | [5]; [20] | [5]; [18] | [5]; [19] | [6]; [20] | [6]; [21] | [6]; [18] | Zea mays (ZEAMX); [20] | [7]; [21] | [7]; [18] | [7]; [19]
